Patent US4636563A, “Antipsychotic γ-carbolines” (American Home Products Corporation, priority 1985, dated 1987)

Key:
[1] = test system: conditioned avoidance responding (shelf-jump); assay: Conditioned avoidance, shelf-jump response (S-J); assay type: in vivo, male CD rats
Text: (§1) The antipsychotic properties of the compounds of this invention were established by standard pharmacologically accepted procedures involving two conditioned avoidance studies in which trained male CD rats (Charles River), 400-450 gm body weight are exposed to a fifteen second warning tone (conditioned stimulus) continued for an additional fifteen seconds accompanied by electric shock. The rat can avoid the electric shock by depression of a response lever (lever-response) or in a different study by jumping to an exposed shelf (shelf-jump response). In either test situation, a response during the initial warning tone is considered an avoidance response while a response during shock delivery is considered an escape response. The avoidance response is determined and expressed as a percentage of total trials from an appropriate number of trials and a 50% block in avoidance responding (AB50) is obtained from a dose-effect regression line. The shelf-jump response test procedure follows that of Herman et al., Comm. in Psychopharm., 3, pp. 165-171 (1979).
(§2) The following examples illustrate the production of compounds of this invention. After each example the pharmacological evaluation for the compound produced is presented. The conditioned avoidance tests are reported as relative activity for the shelf-jump (S-J) at the intraperitoneal (i.p.) dose administered in mg/kg and the AB50 is presented for the lever-response (L-R) test at the oral (p.o.) dose in mg/kg. The inhibition constant is reported for limbic D-2 binding expressed in nM concentration. Similarly, the inhibition constant for cortical 5-HT2 binding is reported as the inhibition constant in nM concentration.

serotonin-2 receptors = target: T1, serotonin-2 receptors (Rattus norvegicus, UniProt P14842); assay: Cortical 5-HT2 binding (brain cortical tissue); conditions: for Ki: 95% confidence interval in brackets, read-out: Cortical 5-HT2 inhibition constant (Ki)
T1 construct: In an analogous test procedure employing brain cortical tissue; from tissue; host or cells: brain cortical tissue
T1 sequence (P14842 whole entry): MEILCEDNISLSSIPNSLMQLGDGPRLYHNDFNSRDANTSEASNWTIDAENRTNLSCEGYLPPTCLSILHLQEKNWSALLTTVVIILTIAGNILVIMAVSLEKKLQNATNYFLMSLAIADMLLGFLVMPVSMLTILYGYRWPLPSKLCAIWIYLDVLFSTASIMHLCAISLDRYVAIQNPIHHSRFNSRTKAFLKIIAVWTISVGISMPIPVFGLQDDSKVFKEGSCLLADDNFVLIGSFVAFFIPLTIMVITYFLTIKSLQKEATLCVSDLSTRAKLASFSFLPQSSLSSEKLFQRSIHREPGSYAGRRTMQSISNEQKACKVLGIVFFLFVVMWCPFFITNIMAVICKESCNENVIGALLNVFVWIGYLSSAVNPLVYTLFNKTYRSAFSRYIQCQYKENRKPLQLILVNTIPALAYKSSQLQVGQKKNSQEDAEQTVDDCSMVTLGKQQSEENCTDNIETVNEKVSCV
Text: as §2

[2] = test system: conditioned avoidance responding (lever-response); assay: Conditioned avoidance, lever-response (L-R); assay type: in vivo, male CD rats; conditions: Rattus norvegicus, po; 95% confidence interval in brackets; read-out: L-R AB50 (50% block in avoidance responding)
Text: as §1, §2

[3] = target: T2, limbic D-2 (dopamine receptor) (Rattus norvegicus, UniProt P61169); assay: Limbic D-2 binding (3H-spiroperidol, homogenized limbic brain tissue); conditions: 95% confidence interval in brackets, read-out: Limbic D-2 inhibition constant (Ki)
T2 construct: from tissue; host or cells: homogenized limbic brain tissue
T2 sequence (P61169 whole entry): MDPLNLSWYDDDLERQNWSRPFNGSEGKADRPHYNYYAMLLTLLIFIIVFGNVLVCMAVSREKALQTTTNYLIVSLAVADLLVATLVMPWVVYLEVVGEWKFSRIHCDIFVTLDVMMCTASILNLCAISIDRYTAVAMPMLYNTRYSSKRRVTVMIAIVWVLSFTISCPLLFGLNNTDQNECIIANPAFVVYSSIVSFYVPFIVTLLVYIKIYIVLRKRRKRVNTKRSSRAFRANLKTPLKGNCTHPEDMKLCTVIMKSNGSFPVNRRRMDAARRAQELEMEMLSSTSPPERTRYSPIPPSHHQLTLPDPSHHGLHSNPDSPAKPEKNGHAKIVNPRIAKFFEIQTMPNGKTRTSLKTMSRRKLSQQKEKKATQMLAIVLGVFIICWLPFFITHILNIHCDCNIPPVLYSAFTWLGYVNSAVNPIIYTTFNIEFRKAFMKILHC
Experimental: Binding in the presence of the test compound is expressed as a percent of specific binding (total binding less binding in the presence of 1 μM (+)butaclamol). An inhibition constant (Ki) is calculated for each test compound to catagorize its limbic D-2 binding potential. The larger the number, the less potential for dopamine receptor binding and attendant side effects from administration of the antipsychotic agent.
as §2

Row | Ki (serotonin-2 receptors) | Ki [3] | Compound | S-J relative activity ([1]; 20 mg/kg i.p.) | ED50 [2] | S-J relative activity ([1]; 40 mg/kg i.p.) | Ki at serotonin-2 receptors (serotonin-2 receptors; reference ligands)
1 | 0.48 µM | 0.143 µM | Fc1ccc2[nH]c3c(c2c1)CN(CCCCc1ccncc1)CC3 [Example 1, 8-Fluoro-2,3,4,5-tetrahydro-2-[4-(4-pyridinyl)butyl]-1H-pyrido[4,3-b]-indole] | Active | 15.1 mg/kg | – | –
2 | 0.173 µM | 0.026 µM | Fc1ccc2[nH]c3c(c2c1)CN(CCc1ccccn1)CC3 [Example 2, 8-Fluoro-2,3,4,5-tetrahydro-2-[2-(2-pyridinyl)ethyl]-1H-pyrido[4,3-b]indole] | Active | 37.6 mg/kg | – | –
3 | 0.211 µM | – | Fc1ccc2[nH]c3c(c2c1)CN(CCc1ccncc1)CC3 [Example 3, 8-Fluoro-2,3,4,5-tetrahydro-2-[2-(4-pyridinyl)ethyl]1H-pyrido[4,3-b]indole] | – | – | – | –
4 | – | 0.185 µM | Fc1ccc2[nH]c3c(c2c1)CN(CCc1ccc2ccccc2n1)CC3 [Example 4, 8-Fluoro-2,3,4,5-tetrahydro-2-[2-(2-quinolinyl)ethyl]-1H-pyrido[4-3-b]indole] | Active | – | – | –
5 | – | – | c1ccc2nc(CCN3CCc4[nH]c5ccccc5c4C3)ccc2c1 [Example 5, 2,3,4,5-Tetrahydro-2-[2-(2-quinolinyl)ethyl]-1H-pyrido[4,3-b]indole] | – | – | Active | –
6 | – | – | c1ccc2c3c([nH]c2c1)CCN(CCCCc1ccncc1)C3 [Example 6, 2,3,4,5-Tetrahydro-2-[4-(4-pyridinyl)butyl]-1H-pyrido[4,3-b]indole] | Active | > 20 mg/kg | Active | –
7 | 0.252 µM | – | c1cncc(CCCN2CCc3[nH]c4ccccc4c3C2)c1 [Example 7, 2,3,4,5-Tetrahydro-2-[3-(3-pyridinyl)propyl]-1H-pyrido[4,3-b]indole] | – | 33.1 mg/kg | Active | –
8 | – | – | Clc1ccc2[nH]c3c(c2c1)CN(CCc1ccccn1)CC3 [Example 9, 8-Chloro-2,3,4,5-tetrahydro-2-[2-(2-pyridinyl)ethyl]-1H-pyrido[4,3-b]indole] | – | > 40 mg/kg | Active | –
9 | – | 0.082 µM | Clc1ccc2[nH]c3c(c2c1)CN(CCc1ccc2ccccc2n1)CC3 [Example 10, 8-Chloro-2,3,4,5-tetrahydro-2-[2-(2-quinolinyl)ethyl]-1H-pyrido-[4,3-b]indole] | – | > 40 mg/kg | Active | –
10 | 0.136 µM | 0.395 µM | Fc1ccc2[nH]c3c(c2c1)CN(CCCc1cccnc1)CC3 [Example 11, 8-Fluoro-2,3,4,5-tetrahydro-2-[3-(3-pyridinyl)propyl]1H-pyrido[4,3-b]indole] | Active | 14.4 mg/kg | – | –
11 | – | – | NCCc1ccc(O)c(O)c1 [dopamine, reference compound] | – | – | – | inactive

Row | Compound | Ki (serotonin-2 receptors) | Ki [3] | S-J relative activity ([1]; 20 mg/kg i.p.) | ED50 [2] | S-J relative activity ([1]; 40 mg/kg i.p.) | Ki at serotonin-2 receptors (serotonin-2 receptors; reference ligands)
12 | Clc1ccc2[nH]c3c(c2c1)CN(CCCCc1ccncc1)CC3 [Example 8, 8-Chloro-2,3,4,5-tetrahydro-2-[4-(4-pyridinyl)butyl]-1H-pyrido[4,3-b]indole] | 0.06 µM | 0.106 µM | – | 36.1 mg/kg | Active | –
13 | Clc1ccc2[nH]c3c(c2c1)CN(CCCc1ccccn1)CC3 [Example 12, 8-Chloro-2,3,4,5-tetrahydro-2-[3-(2-pyridinyl)-propyl]-1H-pyrido[4,3-b]indole] | 0.028 µM | 0.126 µM | – | > 40 mg/kg | Active | –
